The values below come from patent EP0363230A2, “Use of acetogenins in therapy as antiparasitic substances” (LA[…] Société anonyme dite:, priority 1988, dated 1990).

The subject of series [1] is cellules KB. Description: Cytotoxic effect on KB cells (dose lethal for 100 % of cells). The series is classed as cell-based, humain. To be noted: 3 days at 37°C, dose lethal for 100 % of cells (complete disappearance of the cell layer). The source says: (§1) La toxicité a été évaluée par la mesure de la cytotoxicité et de la cytostase vis-à-vis de cellules KB selon une technique usuelle. L'activité antiparasitaire a été déterminée in vitro sur Leishmania donovani, promastigote selon un protocole opératoire décrit ci-après.
(§2) On fait appel à des cellules épithéliales KB provenant d'un carcinome oral épidermoïde humain obtenues selon H. EAGLE "Propagation in a fluid medium of a human epidermoid carcinoma strain KB (21811)", Proc. Soc. Exp. Biol. and Med., 89, pages 362-364, (1955) et commercialisées par la Société dite EUROBIO.
(§3) Le milieu de culture utilisé avait la composition suivante
(§4) L'ensemencement se fait en boîte de 12 cupules contenant chacune 2 ml du milieu. Le produit à tester est mis en solution dans le diméthylsulfoxyde (DMSO) et dilué par du milieu de culture. La solution ainsi obtenue est ajoutée au milieu de culture pour obtenir des concentrations en produit à tester de 5, 10, 20, 30, 40, et […] par ml de milieu. Les cellules sont ajoutées en même temps que la solution du produit à tester.
(§5) Le milieu ensemencé et ainsi traité est mis à l'étuve à 37°C pendant 3 jours. Après fixation des cellules par la méthode dite au cristal violet [selon la technique de R.J. GILLIER et al., "Determination of cell number in monolayer cultures", Analytical Biochemistry 159, pages 109-113, (1986)]. […]

In series [2] the test system is cellules KB. Nature of the series: Cytostatic effect on KB cells (crystal violet, optical density at 590 nm). The series is classed as cell-based, humain. To be noted: 3 days at 37°C, optical density at 590 nm versus control, ***/** = statistical significance.
Description: as §1, §2, §3, §4, §5

Series [3] deals with Leishmania donovani, promastigote. Nature of the series: Anti-Leishmania effect in vitro (growth inhibition of promastigotes, cell count). To be noted: for inhibition (I%): growth inhibition of Leishmania donovani promastigotes; for DI-50: dose of 50 % inhibition, 26°C; for DI-50 / DImax: Leishmania donovani LRC L52 promastigotes, 3 to 4 days; for DImax: dose of maximal measured inhibition. The series is classed as cell-based. As to the method:
as §1
On fait appel à une souche de Lieshmania donovani LRC L52 (de la collection OMS).
as §3
L'ensemencement se fait dans des boîtes de 24 cupules contenant chacune 500 µl de milieu. Le milieu est ensemencé par 500 000 promastigotes par cupule puis placé dans une étuve à CO₂ à 26°C pendant 3 à 4 heures.
Le produit à tester est ajouté en solution dans le DMSO à des concentrations variables sous un volume de 25 µl par cupule. Les boîtes ensemencées et traitées par le produit sont laissées à l'étuve pendant 3 à 4 jours.
La mesure de l'activité est effectuée par comptage des cellules à l'hémocytomètre, le nombre obtenu étant rapporté à un témoin dépourvu de produit (100 % de cellules, soit 0 % d'inhibition de croissance). Chaque manipulation est effectuée 2 fois.
Les résultats obtenus sont également consignés dans le tableau I ci-après où sont données les doses d'inhibition à 50 % (DI-50) et les doses d'inhibition maximale mesurées (DImax).

`CCCCCCCCCC(O)CC1CCC(C2CCC(C(O)CCCC(O)CCCCCCC(O)CCC3=CC(C)OC3=O)O2)O1` (stereo not shown) [Ex 1, 2-[5-(2-hydroxyundécyl)-2-tétrahydrofurannyl]-5-[14-(5-méthyl-2-oxo-2,5-dihydro-3-furannyl)-1,5,12-trihydroxytétradécyl]-tétrahydrofuranne] displayed a Cytotoxicité in series [1] of 40 µg·mL. Also, in series [2], the Cytostase was 20*** µg.ml. In addition, the “inhibition (I%)” value in series [3] (DI = 10 µg.ml) is on record as 100%. For the same molecule, in series [3], the DI-50 is listed as 2,5 µg.ml and the DImax came out at 10 µg·mL.
As for `CCCCCCCCCC(O)CC1CCC(C2CCC(C(O)CCCCCCCCCCC(O)CCC3=CC(C)OC3=O)O2)O1` (stereo not shown) [Ex 8, 2-[5-(2-hydroxyundécyl)-2-tétrahydrofurannyl]-5-[14-(5-méthyl-2-oxo-2,5-dihydro-3-furannyl)-1,12-dihydroxytétradécyl]-tétrahydrofuranne], the Cytotoxicité in series [1] turned out to be 40 µg·mL. For the same molecule, the Cytostase in series [2] was 20** µg.ml. In series [3] (DI = 20 µg.ml), the “inhibition (I%)” value is given as 11%. In series [3], this molecule showed a DI-50 above 20 µg·mL and a DImax of 20 µg·mL.
